From EP4610269A1, “UROKINASE PLASMINOGEN ACTIVATOR SURFACE RECEPTOR (UPAR) LIGANDS FOR DIAGNOSTIC OR THERAPEUTIC USE” (3B Pharmaceuticals GmbH, priority 2024, dated 2025)
Where two headings read alike, the source gives them in different places. *1 amine or outer side, *2 acyl side, *3 side chain or, on linkers, in order; H or OH if unused. Where a SMILES comes first, the peptide text is derived from it. Bridges are numbered along the chain shown (N, C = ends). [ ]: non-standard residue; d: D form. The star is where a group is joined. DOTA = O=C(O)CN1CCN(CC(=O)O)CCN(CC(=O)*)CCN(CC(=O)O)CC1; Pro(cis-4-F) = O=C(O)[C@@H]1C[C@H](F)CN1; Glutaryl = O=C(CCCC(=O)[*:2])[*:1]; Hyp = O=C(O)[C@@H]1C[C@@H](O)CN1; 4Pal = N[C@@H](Cc1ccncc1)C(=O)O; Pentanoyl(4-Me) = CC(C)CCC(=O)*; Cit = NC(=O)NCCC[C@H](N)C(=O)O; NMeL = CN[C@@H](CC(C)C)C(=O)O; Butoxycarbonyl = CCCCOC(=O)*; Ac6c = NC1(C(=O)O)CCCCC1; Nle = CCCC[C@H](N)C(=O)O; Nva = CCC[C@H](N)C(=O)O; Pentanoyl = CCCCC(=O)*; Aib = CC(C)(N)C(=O)O; βAla = NCCC(=O)O

Tests used:
human uPAR (uPAR-Fc) = biological target: T1, human uPAR (uPAR-Fc) (Homo sapiens, UniProt Q03405); experiment: Surface plasmon resonance (SPR) assay, single cycle kinetics; format: binding; settings: pKD category for uPAR SPR activity assay, uPAR-Fc on Protein A-Chip, 25°C, read-out: pKD CAT (converted)
T1 construct: comprising amino acids Leu23-Arg303 according to UniProt entry Q03405.1; purchased R&D Systems 10378-UK-100
T1 sequence (Q03405 23-303): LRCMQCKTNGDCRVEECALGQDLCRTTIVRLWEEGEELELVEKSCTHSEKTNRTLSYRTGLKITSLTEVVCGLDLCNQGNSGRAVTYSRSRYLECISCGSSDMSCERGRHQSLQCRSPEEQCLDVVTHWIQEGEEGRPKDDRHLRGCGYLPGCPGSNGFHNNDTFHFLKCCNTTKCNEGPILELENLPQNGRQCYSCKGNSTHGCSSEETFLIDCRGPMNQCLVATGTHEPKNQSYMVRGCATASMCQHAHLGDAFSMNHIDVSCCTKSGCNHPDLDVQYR
Summary of the method: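 uPAR-Fc (Leu23-Arg303 extracellular domains, human IgG1 Fc) captured on Protein A chip to ~2000 RU; single-cycle kinetics at 25°C in HEPES running buffer pH 7.4 with 0.1% DMSO. KD from double-referenced sensorgrams fitted to 1:1 Langmuir model, reported as pKD.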

[1] = biological target: T2, uPAR-expressing HEC-265 human endometrial adenocarcinoma cells (Homo sapiens, UniProt Q03405); experiment: Competitive FACS binding assay; settings: pIC50 category of FACS binding
T2 construct: Cell surface uPAR-expressing HEC-265 human endometrial adenocarcinoma cells; host or cells: HEC-265
T2 sequence (Q03405 23-335): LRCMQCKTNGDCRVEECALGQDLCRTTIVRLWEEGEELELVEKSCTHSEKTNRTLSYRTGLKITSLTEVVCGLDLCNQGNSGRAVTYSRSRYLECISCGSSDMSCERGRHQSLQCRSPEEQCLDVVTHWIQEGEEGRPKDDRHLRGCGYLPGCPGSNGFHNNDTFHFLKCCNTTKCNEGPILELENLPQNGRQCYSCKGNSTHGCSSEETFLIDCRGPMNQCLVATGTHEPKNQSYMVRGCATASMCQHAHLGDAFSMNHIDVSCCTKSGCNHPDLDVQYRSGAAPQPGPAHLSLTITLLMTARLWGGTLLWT
Summary of the method: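 HEC-265 cells incubated 1 h at 4 °C with 10 nM biotinylated uPAR peptide tracer plus increasing test compound, then stained with APC-streptavidin on ice. Median APC fluorescence by flow cytometry; 4PL fit gives pIC50.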

CCCCC(=O)N[C@H]1CSSC[C@@H](C(N)=O)NC(=O)[C@H](CCC)NC(=O)C2(CCCCC2)NC(=O)[C@@H]2C[C@@H](O)CN2C(=O)[C@@H]2CCCN2C(=O)[C@H](Cc2ccccc2)NC(=O)[C@H](Cc2ccc(O)cc2)NC(=O)[C@H](CCC(N)=O)NC(=O)[C@H](CCCNC(=N)N)NC1=O [UPAR-264, Pent-[Cys-Arg-Gln-Tyr-Phe-Pro-Hyp-Egz-Nva-Cys]-NH2] (Pentanoyl-CRQYFP[Hyp][Ac6c][Nva]C-NH2; disulfide 1-10)
Kd (human uPAR (uPAR-Fc)): < 1.58 nM
IC50 [1]: ≤ 10 nM

CCCC[C@@H]1NC(=O)[C@H](CCCNC(=N)N)NC(=O)[C@@H](NC(=O)[C@H](CC(C)C)NC(=O)[C@H](CC(=O)O)NC(C)=O)CSSC[C@@H](C(N)=O)NC(=O)[C@H](CC(C)C)NC(=O)[C@H]([C@@H](C)CC)NC(=O)C(C)(C)NC(=O)[C@@H]2CCCN2C(=O)[C@H](Cc2ccccc2)NC(=O)[C@H](Cc2ccc(O)cc2)NC1=O [UPAR-440, Ac-Asp-Leu-[Cys-Arg-Nle-Tyr-Phe-Pro-Aib-Ile-Leu-Cys]-NH2] (Ac-DLCR[Nle]YFP[Aib]ILC-NH2; disulfide 3-12)
Kd (human uPAR (uPAR-Fc); single cycle kinetics): < 1.58 nM
IC50 [1]: ≤ 10 nM

CC[C@H](C)[C@@H]1NC(=O)[C@H](C)NC(=O)[C@@H]2CCCN2C(=O)[C@H](Cc2ccccc2)NC(=O)[C@H](Cc2ccc(O)cc2)NC(=O)[C@H](CCSC)NC(=O)[C@H](CCCNC(=N)N)NC(=O)[C@@H](NC(=O)[C@H](CC(C)C)NC(=O)[C@H](CC(=O)O)NC(C)=O)CSSC[C@@H](C(N)=O)NC(=O)[C@H](CC(C)C)NC1=O [UPAR-341, Ac-Asp-Leu-[Cys-Arg-Met-Tyr-Phe-Pro-Ala-Ile-Leu-Cys]-NH2] (Ac-DLCRMYFPAILC-NH2; disulfide 3-12)
Kd (human uPAR (uPAR-Fc)): < 1.58 nM
IC50 [1]: ≤ 10 nM

CC[C@H](C)[C@@H]1NC(=O)[C@@H](C)NC(=O)[C@@H]2CCCN2C(=O)[C@H](Cc2ccccc2)NC(=O)[C@H](Cc2ccc(O)cc2)NC(=O)[C@H](CCC(N)=O)NC(=O)[C@H](CCCNC(N)=O)NC(=O)[C@@H](NC(=O)CCC(C)C)CSSC[C@@H](C(N)=O)NC(=O)[C@H](C(C)C)NC1=O [UPAR-184, iHex-[Cys-Cit-Gln-Tyr-Phe-Pro-ala-Ile-Val-Cys]-NH2] ({Pentanoyl(4-Me)}-C[Cit]QYFP[dA]IVC-NH2; disulfide 1-10)
Kd (human uPAR (uPAR-Fc)): 1.58 to 10 nM
IC50 [1]: ≤ 10 nM

CCCCC(=O)N[C@H]1CSSC[C@@H](C(N)=O)NC(=O)[C@H](CCC)NC(=O)[C@H]([C@@H](C)CC)NC(=O)[C@@H]2C[C@@H](O)CN2C(=O)[C@H](CC(C)C)N(C)C(=O)[C@H](Cc2ccccc2)NC(=O)[C@H](Cc2ccc(O)cc2)NC(=O)[C@H](CCC(N)=O)NC(=O)[C@H](CCCNC(=N)N)NC1=O [UPAR-302, Pent-[Cys-Arg-Gln-Tyr-Phe-Nml-Hyp-Ile-Nva-Cys]-NH2] (Pentanoyl-CRQYF[NMeL][Hyp]I[Nva]C-NH2; disulfide 1-10)
Kd (human uPAR (uPAR-Fc)): 1.58 to 10 nM
IC50 [1]: 12.6 to 31.6 nM

CC[C@H](C)[C@@H]1NC(=O)[C@@H](C)NC(=O)[C@@H]2CCCN2C(=O)[C@H](Cc2ccccc2)NC(=O)[C@H](Cc2ccc(O)cc2)NC(=O)[C@H](CCC(N)=O)NC(=O)[C@H](CCCNC(N)=O)NC(=O)[C@@H](NC(=O)CCCC(=O)O)CSSC[C@@H](C(N)=O)NC(=O)[C@H](CC(C)C)NC1=O [UPAR-359, Glutar-[Cys-Cit-Gln-Tyr-Phe-Pro-ala-Ile-Leu-Cys]-NH2] (Glutaryl-C[Cit]QYFP[dA]ILC-NH2; disulfide 1-10)
Kd (human uPAR (uPAR-Fc); single cycle kinetics): > 100 nM
IC50 [1]: ≥ 126 nM

CCCCC(=O)N[C@H]1CSSC[C@@H](C(N)=O)NC(=O)[C@H](CCC)NC(=O)[C@H]([C@@H](C)CC)NC(=O)[C@@H]2C[C@@H](O)CN2C(=O)[C@@H]2CCCN2C(=O)[C@H](Cc2ccccc2)NC(=O)[C@H](Cc2ccncc2)NC(=O)[C@H](CCCCNC(=O)CN2CCN(CC(=O)O)CCN(CC(=O)O)CCN(CC(=O)O)CC2)NC(=O)[C@H](CCCNC(N)=O)NC1=O [UPAR-336, Pent-[Cys-Cit-Lys(DOTA)-Ppa-Phe-Pro-Hyp-Ile-Nva-Cys]-NH2] (Pentanoyl-C[Cit]K(DOTA)[4Pal]FP[Hyp]I[Nva]C-NH2; disulfide 1-10)
Kd (human uPAR (uPAR-Fc)): < 1.58 nM
IC50 [1]: ≤ 10 nM

CCCCOC(=O)N[C@H]1CSSC[C@@H](C(=O)NCCC(=O)O)NC(=O)[C@H](CCC)NC(=O)[C@H]([C@@H](C)CC)NC(=O)[C@@H]2C[C@@H](O)CN2C(=O)[C@@H]2C[C@H](F)CN2C(=O)[C@H](Cc2ccccc2)NC(=O)[C@H](Cc2ccc(O)cc2)NC(=O)[C@H](CCCCNC(=O)CN2CCN(CC(=O)O)CCN(CC(=O)O)CCN(CC(=O)O)CC2)NC(=O)[C@H]([C@@H](C)O)NC1=O [UPAR-127, Butoc-[Cys-Thr-Lys(DOTA)-Tyr-Phe-4Cfp-Hyp-Ile-Nva-Cys]-Bal-OH] (Butoxycarbonyl-CTK(DOTA)YF[Pro(cis-4-F)][Hyp]I[Nva]C[βAla]-OH; disulfide 1-10)
Kd (human uPAR (uPAR-Fc)): 1.58 to 10 nM
IC50 [1]: ≤ 10 nM
